In US12503471B2, “Triazatricycle compounds for the treatment of autoimmune disease” (Hoffmann-La Roche Inc., priority 2019, dated 2025):

target: T1, human TLR9 (Homo sapiens, UniProt Q9NR96); assay: HEK293-Blue-hTLR-9 cells assay; assay type: cell-based; conditions: HEK293-Blue-hTLR9 cells, ODN2006 stimulation, 20 hrs, SEAP reporter; read-out: HEK/hTLR9 IC50
T1 construct: host or cells: HEK293 (HEK-Blue hTLR9)
T1 sequence (Q9NR96 26-1032): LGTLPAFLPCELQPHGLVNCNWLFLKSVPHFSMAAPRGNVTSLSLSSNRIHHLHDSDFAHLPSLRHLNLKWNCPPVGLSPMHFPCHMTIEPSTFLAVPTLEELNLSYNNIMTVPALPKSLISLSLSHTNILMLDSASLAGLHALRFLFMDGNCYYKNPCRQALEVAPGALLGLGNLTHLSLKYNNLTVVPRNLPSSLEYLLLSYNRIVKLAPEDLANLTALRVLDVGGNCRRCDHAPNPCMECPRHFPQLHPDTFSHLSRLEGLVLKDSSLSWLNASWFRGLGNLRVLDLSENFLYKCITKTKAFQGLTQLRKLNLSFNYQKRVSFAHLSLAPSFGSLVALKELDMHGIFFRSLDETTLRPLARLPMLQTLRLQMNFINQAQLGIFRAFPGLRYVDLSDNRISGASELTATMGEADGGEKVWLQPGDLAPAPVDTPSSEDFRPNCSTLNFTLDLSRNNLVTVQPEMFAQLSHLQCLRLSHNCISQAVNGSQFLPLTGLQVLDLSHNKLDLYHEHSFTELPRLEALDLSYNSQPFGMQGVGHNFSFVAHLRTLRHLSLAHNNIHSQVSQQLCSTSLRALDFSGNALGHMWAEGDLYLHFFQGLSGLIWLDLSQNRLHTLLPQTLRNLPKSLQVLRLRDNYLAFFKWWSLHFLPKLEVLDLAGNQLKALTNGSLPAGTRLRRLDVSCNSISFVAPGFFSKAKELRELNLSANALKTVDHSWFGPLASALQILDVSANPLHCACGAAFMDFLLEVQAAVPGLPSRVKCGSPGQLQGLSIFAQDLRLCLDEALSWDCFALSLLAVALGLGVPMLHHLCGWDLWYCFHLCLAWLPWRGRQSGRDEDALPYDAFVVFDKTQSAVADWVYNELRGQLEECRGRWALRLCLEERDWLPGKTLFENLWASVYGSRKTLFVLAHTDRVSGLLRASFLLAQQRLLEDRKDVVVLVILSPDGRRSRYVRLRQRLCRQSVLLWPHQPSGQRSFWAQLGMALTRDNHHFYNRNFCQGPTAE
Text: HEK293-Blue-hTLR-9 Cells Assay:
A stable HEK293-Blue-hTLR-9 cell line was purchased from InvivoGen (Cat. #: hkb-htlr9, San Diego, Calif., USA). These cells were originally designed for studying the stimulation of human TLR9 by monitoring the activation of NF-κB. A SEAP (secreted embryonic alkaline phosphatase) reporter gene was placed under the control of the IFN-β minimal promoter fused to five NF-κB and AP-1-binding sites. The SEAP was induced by activating NF-κB and AP-1 via stimulating HEK-Blue hTLR9 cells with TLR9 ligands. Therefore the reporter expression was declined by TLR9 antagonist under the stimulation of a ligand, such as ODN2006 (Cat. #: tlrl-2006-1, Invivogen, San Diego, Calif., USA), for incubation of 20 hrs. The cell culture supernatant SEAP reporter activity was determined using QUANTI-Blue^TM kit (Cat. #: rep-qbl, Invivogen, San Diego, Calif., USA) at a wavelength of 640 nm, a detection medium that turns purple or blue in the presence of alkaline phosphatase.
HEK293-Blue-hTLR9 cells were incubated at a density of 250,000˜450,000 cells/mL in a volume of 170 μL in a 96-well plate in Dulbecco's Modified Eagle's medium (DMEM) containing 4.5 g/L glucose, 50 U/mL penicillin, […] streptomycin, […] Normocin, 2 mM L-glutamine, 10% (v/v) heat-inactivated fetal bovine serum with addition of 20 μL test compound in a serial dilution in the presence of final DMSO at 1% and 10 μL of 20 uM ODN2006 in above DMEM, perform incubation under 37° C. in a CO2 incubator for 20 hrs. Then 20 μL of the supernatant from each well was incubated with 180 μL Quanti-blue substrate solution at 37° C. for 2 h and the absorbance was read at 620-655 nm using a spectrophotometer. The signaling pathway that TLR9 activation leads to downstream NF-κB activation has been widely accepted, and therefore similar reporter assay was modified for evaluating TLR9 antagonist.

| IC50 | Structure (SMILES) |
| --- | --- |
| 0.177 µM | C[C@@H]1CN(c2ccc(C#N)n3nccc23)C[C@@H]2c3ccc(N4C[C@@H]5C[C@H]4CN5)nc3CN12 [Example 21, 4-[(2S,6R)-11-[(1S,4S)-2,5-diazabicyclo[2.2.1]heptan-2-yl]-6-methyl-4,7,10-triazatricyclo[7.4.0.02,7]trideca-1(9),10,12-trien-4-yl]pyrazolo[1,5-a]pyridine-7-carbonitrile] |
| 0.305 µM | [2H]c1ccc2c(N3C[C@@H](C)N4Cc5nc(N6CC[C@H](N)[C@@H](OC)C6)ccc5[C@H]4C3)ccc(C#N)c2n1 [Example 12, 5-[(2S,6R)-11-[(3S,4S)-4-amino-3-methoxy-1-piperidyl]-6-methyl-4,7,10-triazatricyclo[7.4.0.02,7]trideca-1(9),10,12-trien-4-yl]-2-deuterio-quinoline-8-carbonitrile] |
| 0.262 µM | [2H]c1ccc2c(N3C[C@@H](C)N4Cc5nc(N6CCC7(CC6)CNCCO7)ccc5[C@H]4C3)ccc(C#N)c2n1 [Example 18, 2-Deuterio-5-[(2S,6R)-6-methyl-11-(1-oxa-4,9-diazaspiro[5.5]undecan-9-yl)-4,7,10-triazatricyclo[7.4.0.02,7]trideca-1(9),10,12-trien-4-yl]quinoline-8-carbonitrile] |
| 0.274 µM | [2H]c1ccc2c(N3C[C@@H](C)N4Cc5nc(O[C@H]6CCNC6)ccc5[C@H]4C3)ccc(C#N)c2n1 [Example 25, 2-Deuterio-5-[(2S,6R)-6-methyl-11-[(3S)-pyrrolidin-3-yl]oxy-4,7,10-triazatricyclo[7.4.0.02,7]trideca-1(9),10,12-trien-4-yl]quinoline-8-carbonitrile] |
